According to PMC3477139 (PLoS ONE, 2012):

Experiments:
human GLP-1R [1] = target: T1, human GLP-1R (Homo sapiens, UniProt P43220); assay: ERK activation (phospho-ERK Western blot) in HEK-GLP-1R cells; type: cell-based; conditions: compound 2 10 µM, 5 min
T1 construct: expressed in transfected cells; vector pcDNA5/FRT
Protocol: (§1) Concentration-response curves were fitted using GraphPad Prism (GraphPad Software Inc., CA) using a standard four parameter logistic equation. All data are representative of n≥3 or are presented as mean+/±s.e.m., where n = 3 unless otherwise stated. Statistical analysis was by oneway ANOVA and where P<0.05, followed by Bonferroni's or Dunnett's multiple range test as indicated. Alternatively analysis was performed by Student's t-test. Where potency estimates are given these are pEC50 values (−log10 of the molar concentration giving 50% of the maximal response).

human GLP-1R [2] = target: T1, human GLP-1R; conditions: earlier studies; interpretation may be compromised by adverse effects of compound 2; ref [7]; cited from earlier work
From the text: Given its physiological roles, the GLP-1R is targeted for treatment of type 2 diabetes. […] Such proteolysis is thought to remove biological activity.

human GLP-1R [3] = target: T1, human GLP-1R; assay: Intracellular Ca2+ signaling in fluo-4-loaded HEK-GLP-1R cells; type: cell-based
Protocol: as §1

wild-type HEK293 cells = assay: ERK activation in wild-type HEK293 cells; type: cell-based; conditions: data not shown
Protocol: Cells grown to confluence on 24-well plates pre-coated with poly-D-lysine (0.1% w/v) were washed and equilibrated in KHB at 37°C (400 µl). Cells were challenged at 37°C in 400 µl KHB-BSA and reactions terminated by replacement of buffer with 100 µl ice-cold Laemmli sample buffer (62.5 mM Tris-HCl, pH 6.8, 2% w/v SDS, 10% v/v glycerol, 50 mM DTT and 0.1% bromophenol blue). Proteins (∼30 µg) were separated by 12% SDS-PAGE, transferred onto polyvinylidene fluoride membranes, blocked for 1 h in 5% (w/v) skimmed milk powder in TTBS (150 mM NaCl, 50 mM Tris, pH 7.5, 0.1% Tween-20) and incubated overnight at 4°C with anti-phospho-ERK antibody (1∶2000) or anti-S6 antibody (1∶20,000) in 3% BSA in TTBS. Blots were washed (3×10 min) in TTBS and incubated for 1 h with anti-mouse HRP conjugated secondary antibody (1∶1000 in blocking buffer). After washing in TTBS (3×10 min), blots were exposed to ECL detection reagents (Uptima-Interchim, Montlucon, France) according to the manufacturer's guidelines and bands visualised using Kodak Medical X-ray film (Wolf Laboratories Ltd, Pocklington, U.K.). The intensities of the immunoblot bands were determined using ImageJ.

β2-adrenoceptors = assay: cAMP accumulation via β2-adrenoceptors in HEK-GLP-1R cells; type: cell-based
Protocol: Ligands or vehicle control (40 µl) were added and reactions terminated after the appropriate times by replacement of the aqueous phase with ice-cold 0.5 M trichloroacetic acid. […] Reactions were terminated as above.
(§2) The cAMP was extracted from either intact cell or membrane preparations using a method identical to that for extraction of Ins(1,4,5)P3 [22]. Levels of cAMP were then determined by a competitive radioreceptor assay using binding protein purified from bovine adrenal glands and related to cellular protein assessed by Bradford assay.
All data are mean±/+s.e.m., n = 3–4, *** P<0.001 and ** P<0.01 by Bonferroni's multiple range test. For clarity only differences between ‘numerical’ and ‘co-addition’ conditions are shown.

human GLP-1R [4] = target: T1, human GLP-1R; assay: cAMP generation in intact HEK-GLP-1R cells; type: cell-based
Protocol: HEK-Flp-In cells with stable recombinant expression of the human GLP-1R (HEK-GLP-1R) were cultured in DMEM with high glucose supplemented with 10% FBS, 100 µg/ml streptomycin and 100 units/ml penicillin sulphate. These cells were originally generated by transfection of HEK-Flp-In cells (Invitrogen: Paisley, U.K.) with pcDNA5/FRT containing the human GLP-1R. […] INS-1E cells were kindly provided by Prof. C.B. Wollheim of the University of Geneva, Switzerland [19]. These cells were used between passages 65–90 and cultured in RPMI media containing 11.1 mM glucose, 5% heat-inactivated FBS, 100 µg/ml streptomycin, 100 units/ml penicillin sulphate, 100 units/ml neomycin, 50 µM β-mercaptoethanol, 10 mM HEPES and 1 mM sodium pyruvate. All cells were cultured at 37°C in a 5% CO2 humidified atmosphere and passaged at confluence.
Confluent monolayers of HEK-GLP-1R cells cultured in 24-well plates pre-coated with poly-D-lysine (0.1% w/v) where washed twice with 0.5 ml Krebs-HEPES buffer (KHB, composition: 10 mM HEPES; 4.2 mM NaHCO3; 11.7 mM D-glucose; 1.18 mM MgSO4·7H2O; 1.18 mM KH2PO4; 4.69 mM KCl; 118 mM NaCl; 1.3 mM CaCl2·2H2O; pH 7.4) containing 0.1% (w/v) BSA (KHB-BSA) before incubation (10 min, 37°C) in 360 µl KHB-BSA containing 500 µM isobutylmethylxanthine (IBMX). Ligands or vehicle control (40 µl) were added and reactions terminated after the appropriate times by replacement of the aqueous phase with ice-cold 0.5 M trichloroacetic acid. INS-1E cells grown to confluence in 24-well plates were treated similarly with the exception that after washing in KHB, cells were incubated in 200 µl KHB-BSA containing 1.4 mM glucose without IBMX for 2 h followed by challenge with ligands (or vehicle) for 15 min at 37°C in 400 µl KHB-BSA, in the presence of 10 mM glucose and 500 µM IBMX. Reactions were terminated as above.
as §2, §1

T1 sequence (P43220 24-463): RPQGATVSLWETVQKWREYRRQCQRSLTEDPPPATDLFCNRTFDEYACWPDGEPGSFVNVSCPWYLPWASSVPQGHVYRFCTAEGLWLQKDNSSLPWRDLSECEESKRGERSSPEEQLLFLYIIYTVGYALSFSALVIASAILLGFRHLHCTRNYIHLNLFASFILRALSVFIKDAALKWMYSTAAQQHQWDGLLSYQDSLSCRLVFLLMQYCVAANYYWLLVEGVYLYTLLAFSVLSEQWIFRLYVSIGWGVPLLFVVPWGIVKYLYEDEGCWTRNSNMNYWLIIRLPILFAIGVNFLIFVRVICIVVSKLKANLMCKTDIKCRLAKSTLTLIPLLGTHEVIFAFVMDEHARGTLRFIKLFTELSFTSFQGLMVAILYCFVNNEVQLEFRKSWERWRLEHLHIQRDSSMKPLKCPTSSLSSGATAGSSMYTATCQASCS

## CC(C)(C)Nc1nc2cc(Cl)c(Cl)cc2nc1S(C)(=O)=O [compound 2, 6,7-dichloro-2-methylsulfonyl-3-N-tert-butylaminoquinoxaline]
Human GLP-1R [1]
  ERK activation: response equivalent to the maximally effective concentration of GLP-1 7–36 amide (10 nM)
Human GLP-1R [2]
  effect on GLP-1 7–36 amide potency (cAMP): actually reduced GLP-1 7–36 amide potency
Human GLP-1R [3]; compound 2, 10 µM
  fluorescence change sensitive to thapsigargin: did not cause an appreciable, thapsigargin-sensitive increase in fluorescence
Human GLP-1R [3]; compound 2, 100 µM, with/without thapsigargin (2 µM, 5 min)
  fluorescence change sensitive to thapsigargin: a proportion of the change in fluorescence in response to compound 2 was blocked by thapsigargin
wild-type HEK293 cells
  ERK activation in wild-type HEK293 cells: Neither GLP-1 9–36 amide, GLP-1 7–36 amide nor compound 2 increased ERK activation
β2-adrenoceptors; Figure 3D
  effect on cAMP generation by the β-adrenoceptor: inability of compound 2 to influence cAMP generation
β2-adrenoceptors; isoproterenol (100 µM) + compound 2 (1 µM), IBMX, 5% DMSO
  cAMP accumulation on co-stimulation with isoproterenol and compound 2 versus numerical sum: only equivalent to the numerical addition of responses to the two ligands when used alone
Human GLP-1R [4]; 1 µM compound 2, IBMX
  time of peak cAMP response: 30 min
Human GLP-1R [4]; 1 µM, over 60 min, IBMX, 5% DMSO, n = 3
  cAMP response over time (in words): evoked a more robust increase, which peaked at 30 min and then declined
Human GLP-1R [4]; concentration-response, 15 min, IBMX
  cAMP response (in words): at >3 µM caused progressively lower cAMP responses, resulting in a bell-shaped concentration-response curve
Human GLP-1R [4]; no pretreatment (buffer 10 min), 15 min challenge, IBMX, pH 7.4, 37°C, mean±s.e.m., n = 3
  maximal response (Emax), cAMP: 1908±91 pmol/mg protein
Human GLP-1R [4]; no pretreatment (buffer 10 min), 15 min challenge, IBMX, compound 2: rising phase of bell-shaped curve, mean±s.e.m., n = 3
  pEC50, cAMP: 5.94±0.04
Human GLP-1R [4]; no pretreatment, 15 min challenge, IBMX
  Emax as % of the GLP-1 7–36 amide response, cAMP: 72%
Human GLP-1R [4]; preincubated 10 min with 1 µM GLP-1 9–36 amide, 15 min challenge, IBMX, compound 2: rising phase, mean±s.e.m., n = 3
  pEC50, cAMP, after preincubation with GLP-1 9–36 amide: 6.55±0.07
